ChEMBL document CHEMBL1909046, “DrugMatrix in vitro pharmacology data”

Key:
Adenosine receptor A3 = molecular target: T1, Adenosine receptor A3 (Homo sapiens, UniProt P0DMS8); type: cell membranes, CHO-K1, Membrane; details: for Ki: read-out: Ki;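 on all read-outs here: radioligand binding assay with AB-MECA serving as the labeled ligand; in other assays of this panel Not Active means under 50% inhibition at 10 µM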
T1 sequence (P0DMS8 whole entry): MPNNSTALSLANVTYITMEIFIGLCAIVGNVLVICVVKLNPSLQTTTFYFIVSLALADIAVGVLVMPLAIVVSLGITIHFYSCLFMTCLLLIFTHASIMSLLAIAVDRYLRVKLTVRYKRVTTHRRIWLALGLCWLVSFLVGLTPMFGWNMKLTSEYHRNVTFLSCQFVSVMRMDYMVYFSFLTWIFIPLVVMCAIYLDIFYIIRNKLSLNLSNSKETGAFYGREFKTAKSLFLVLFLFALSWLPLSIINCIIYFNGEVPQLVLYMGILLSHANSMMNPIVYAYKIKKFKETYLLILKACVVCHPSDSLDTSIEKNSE

Estrogen receptor = molecular target: T2, Estrogen receptor (Homo sapiens, UniProt P03372); details: sf9; further: in other assays of this panel Not Active means under 50% inhibition at 10 µM
T2 sequence (P03372 whole entry): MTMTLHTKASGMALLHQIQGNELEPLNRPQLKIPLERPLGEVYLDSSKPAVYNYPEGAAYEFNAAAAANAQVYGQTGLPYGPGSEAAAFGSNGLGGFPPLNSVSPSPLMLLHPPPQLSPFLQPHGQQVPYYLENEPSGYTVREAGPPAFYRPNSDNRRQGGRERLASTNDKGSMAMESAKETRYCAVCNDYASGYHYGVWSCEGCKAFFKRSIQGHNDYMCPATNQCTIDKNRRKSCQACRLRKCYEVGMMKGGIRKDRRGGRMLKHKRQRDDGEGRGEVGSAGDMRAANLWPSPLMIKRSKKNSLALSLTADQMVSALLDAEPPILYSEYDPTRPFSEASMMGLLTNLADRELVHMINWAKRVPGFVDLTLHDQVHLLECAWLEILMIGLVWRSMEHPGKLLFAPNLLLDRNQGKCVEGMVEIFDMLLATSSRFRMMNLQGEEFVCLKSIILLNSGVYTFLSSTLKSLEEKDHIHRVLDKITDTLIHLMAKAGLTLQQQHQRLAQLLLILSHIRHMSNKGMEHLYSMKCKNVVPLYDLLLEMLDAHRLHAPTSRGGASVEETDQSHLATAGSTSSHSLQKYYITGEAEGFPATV

[1] = molecular target: Delta-type opioid receptor (Homo sapiens, UniProt P41143); type: cell membranes, HEK293, Membrane; further: in other assays of this panel Not Active means under 50% inhibition at 10 µM
[2] = molecular target: T3, Alpha-1D adrenergic receptor (Homo sapiens, UniProt P25100); type: cell membranes, HEK293, Membrane; details: for Ki: read-out: Ki; on all read-outs here: in other assays of this panel Not Active means under 50% inhibition at 10 µM
T3 sequence (P25100 whole entry): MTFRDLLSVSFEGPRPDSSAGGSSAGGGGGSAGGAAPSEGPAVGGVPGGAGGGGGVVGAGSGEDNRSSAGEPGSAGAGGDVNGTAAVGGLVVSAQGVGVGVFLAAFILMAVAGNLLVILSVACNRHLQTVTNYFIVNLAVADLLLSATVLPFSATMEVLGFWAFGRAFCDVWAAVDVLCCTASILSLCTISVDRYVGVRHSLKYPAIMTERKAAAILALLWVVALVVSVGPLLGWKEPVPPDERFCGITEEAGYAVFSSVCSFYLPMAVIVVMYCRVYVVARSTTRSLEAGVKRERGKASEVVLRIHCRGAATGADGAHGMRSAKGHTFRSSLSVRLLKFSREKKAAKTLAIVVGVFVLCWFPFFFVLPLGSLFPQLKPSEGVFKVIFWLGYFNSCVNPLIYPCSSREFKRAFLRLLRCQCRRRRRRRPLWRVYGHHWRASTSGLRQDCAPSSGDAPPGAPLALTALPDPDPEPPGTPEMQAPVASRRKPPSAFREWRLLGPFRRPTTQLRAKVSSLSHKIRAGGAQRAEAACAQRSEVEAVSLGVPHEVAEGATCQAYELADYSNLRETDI

[3] = molecular target: T4, Muscarinic acetylcholine receptor M5 (Homo sapiens, UniProt P08912); type: cell membranes, Membrane; details: cho-k1; further: in other assays of this panel Not Active means under 50% inhibition at 10 µM
T4 sequence (P08912 whole entry): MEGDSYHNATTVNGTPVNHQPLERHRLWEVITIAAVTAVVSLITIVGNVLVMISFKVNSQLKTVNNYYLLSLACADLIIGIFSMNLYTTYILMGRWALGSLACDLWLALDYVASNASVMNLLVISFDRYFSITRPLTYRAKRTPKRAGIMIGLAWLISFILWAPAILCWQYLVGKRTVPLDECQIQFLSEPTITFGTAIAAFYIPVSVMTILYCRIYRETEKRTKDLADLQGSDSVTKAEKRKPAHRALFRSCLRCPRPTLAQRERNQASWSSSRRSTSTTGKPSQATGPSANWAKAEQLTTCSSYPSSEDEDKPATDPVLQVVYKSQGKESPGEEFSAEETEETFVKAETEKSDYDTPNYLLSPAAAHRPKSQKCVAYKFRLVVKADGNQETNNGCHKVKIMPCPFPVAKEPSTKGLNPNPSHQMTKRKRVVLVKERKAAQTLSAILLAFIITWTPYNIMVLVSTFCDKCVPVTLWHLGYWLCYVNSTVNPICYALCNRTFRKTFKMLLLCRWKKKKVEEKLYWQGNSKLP

[4] = molecular target: Mitogen-activated protein kinase 1 (Homo sapiens, UniProt P28482); assay: DRUGMATRIX: Protein Serine/Threonine Kinase, ERK2 enzyme inhibition (substrate: Myelin Basic Protein); set-up: species or system Escherichia coli; details: Not Active = under 50% inhibition at 10 µM
Sequence of Mitogen-activated protein kinase 1 (P28482 whole entry): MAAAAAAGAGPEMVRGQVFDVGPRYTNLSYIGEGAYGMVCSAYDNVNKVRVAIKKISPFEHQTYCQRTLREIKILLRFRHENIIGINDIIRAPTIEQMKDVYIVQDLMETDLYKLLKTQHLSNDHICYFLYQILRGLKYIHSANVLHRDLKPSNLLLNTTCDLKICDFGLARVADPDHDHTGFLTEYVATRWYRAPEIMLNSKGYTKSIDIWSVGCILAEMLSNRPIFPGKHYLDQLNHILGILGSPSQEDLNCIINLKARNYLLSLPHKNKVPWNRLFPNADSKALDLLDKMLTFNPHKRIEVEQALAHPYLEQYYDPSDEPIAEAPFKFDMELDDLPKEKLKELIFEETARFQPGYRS

Sequence of Delta-type opioid receptor (P41143 whole entry): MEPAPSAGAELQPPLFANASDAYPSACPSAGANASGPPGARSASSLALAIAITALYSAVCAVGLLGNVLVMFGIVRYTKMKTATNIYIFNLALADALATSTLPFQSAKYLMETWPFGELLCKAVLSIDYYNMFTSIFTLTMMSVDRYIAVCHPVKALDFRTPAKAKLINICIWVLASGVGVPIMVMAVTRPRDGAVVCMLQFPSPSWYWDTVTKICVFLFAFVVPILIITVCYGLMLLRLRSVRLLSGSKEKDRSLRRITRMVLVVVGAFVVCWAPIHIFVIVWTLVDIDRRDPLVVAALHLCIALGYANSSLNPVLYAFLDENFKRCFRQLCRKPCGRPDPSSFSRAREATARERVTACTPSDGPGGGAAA

Row | Compound | IC50 (Adenosine receptor A3; cho-k1) | IC50 (Estrogen receptor) | IC50 ([1]; hek293) | IC50 ([2]; hek293) | IC50 [3] | IC50 [4] | IC50 ([2]; read-out: IC50) [µM] | Ki [2] [µM] | IC50 ([4]; read-out: IC50) [µM] | IC50 (Adenosine receptor A3; read-out: IC50) [µM] | Ki (Adenosine receptor A3) [µM] | IC50 ([1]; read-out: IC50) [µM] | Ki ([1]; read-out: Ki) [µM]
1 | COc1cc(N)nc2[nH]c(-c3ccc(F)cc3)c(-c3ccncc3)c12 | Not Active | Not Active | Not Active | Not Active | Not Active | Not Active | – | – | – | – | – | – | –
2 | CNS(=O)(=O)Cc1ccc2[nH]cc(CCN(C)C)c2c1 | Not Active | – | Not Active | Not Active | Not Active | Not Active | – | – | – | – | – | – | –
3 | CCCc1nn(C)c2c(=O)[nH]c(-c3cc(S(=O)(=O)N4CCN(C)CC4)ccc3OCC)nc12 | Not Active | – | Not Active | Not Active | Not Active | Not Active | – | – | – | – | – | – | –
4 | COc1ccc(/C=C/C(=O)Nc2ccccc2C(=O)O)cc1OC | Not Active | Not Active | Not Active | Not Active | Not Active | Not Active | – | – | – | – | – | – | –
5 | CCOC(N)=O | Not Active | Not Active | Not Active | Not Active | Not Active | Not Active | – | – | – | – | – | – | –
6 | CC(=O)Nc1nnc(S(N)(=O)=O)s1 [ACETAZOLAMIDE] | Not Active | Not Active | Not Active | Not Active | Not Active | Not Active | – | – | – | – | – | – | –
7 | O=c1[nH]c2ccccc2n1CCCN1CCC(n2c(=O)[nH]c3cc(Cl)ccc32)CC1 [DOMPERIDONE] | Not Active | – | Not Active | – | Not Active | Not Active | 1.06 | 0.524 | – | – | – | – | –
8 | CC1=C(CC(=O)O)c2cc(F)ccc2/C1=C\c1ccc(S(C)(=O)=O)cc1 [EXISULIND] | Not Active | Not Active | Not Active | Not Active | Not Active | – | – | – | 13.8 | – | – | – | –
9 | CC(C)OC(=O)C(C)(C)Oc1ccc(C(=O)c2ccc(Cl)cc2)cc1 [FENOFIBRATE] | – | Not Active | Not Active | Not Active | Not Active | Not Active | – | – | – | 5.7 | 3.22 | – | –
10 | OCCN1CCN(CCCN2c3ccccc3Sc3ccc(C(F)(F)F)cc32)CC1 [FLUPHENAZINE] | – | Not Active | – | – | Not Active | Not Active | 0.033 | 0.016 | – | 11.9 | 6.75 | 24 | 8.47
11 | CN1C2CCCC1CC(NC(=O)c1nn(C)c3ccccc13)C2 (configuration not stated) [GRANISETRON] | Not Active | Not Active | Not Active | Not Active | Not Active | Not Active | – | – | – | – | – | – | –
12 | Nc1nc2c(c(=O)[nH]1)N(C=O)C(CNc1ccc(C(=O)N[C@@H](CCC(=O)O)C(=O)O)cc1)CN2 (some centres not stated) [LEUCOVORIN] | Not Active | – | Not Active | Not Active | Not Active | – | – | – | – | – | – | – | –
13 | C[C@@H](O)[C@H]1C(=O)N2C(C(=O)O)=C(S[C@@H]3CN[C@H](C(=O)N(C)C)C3)[C@H](C)[C@H]12 [MEROPENEM] | Not Active | – | Not Active | Not Active | Not Active | Not Active | – | – | – | – | – | – | –
14 | CCN(CC)CC#CCOC(=O)C(O)(c1ccccc1)C1CCCCC1 (configuration not stated) [OXYBUTYNIN] | Not Active | – | Not Active | Not Active | – | Not Active | – | – | – | – | – | – | –
15 | C=C(C)[C@H]1Cc2c(ccc3c2O[C@@H]2COc4cc(OC)c(OC)cc4[C@@H]2C3=O)O1 [ROTENONE] | Not Active | – | Not Active | Not Active | Not Active | Not Active | – | – | – | – | – | – | –
16 | Nc1ccc(S(=O)(=O)Nc2ncccn2)cc1 [SULFADIAZINE] | Not Active | – | Not Active | Not Active | Not Active | Not Active | – | – | – | – | – | – | –
17 | CC(C)(C)NC[C@H](O)COc1nsnc1N1CCOCC1 [TIMOLOL] | Not Active | – | Not Active | Not Active | Not Active | Not Active | – | – | – | – | – | – | –
18 | O=c1n(CCCN2CCN(c3cccc(Cl)c3)CC2)nc2ccccn12 [TRAZODONE] | Not Active | – | Not Active | – | Not Active | Not Active | 0.265 | 0.13 | – | – | – | – | –
19 | O=C(O)C(Cl)(Cl)Cl [TRICHLOROACETIC ACID] | Not Active | – | Not Active | Not Active | Not Active | Not Active | – | – | – | – | – | – | –
